In BindingDB's records for patent US9701669 (Merck Sharp & Dohme Corp, 2017):

Biological target: T1, Proteinase-activated receptor 1 (Homo sapiens, UniProt P25116)
T1 sequence (P25116 whole entry): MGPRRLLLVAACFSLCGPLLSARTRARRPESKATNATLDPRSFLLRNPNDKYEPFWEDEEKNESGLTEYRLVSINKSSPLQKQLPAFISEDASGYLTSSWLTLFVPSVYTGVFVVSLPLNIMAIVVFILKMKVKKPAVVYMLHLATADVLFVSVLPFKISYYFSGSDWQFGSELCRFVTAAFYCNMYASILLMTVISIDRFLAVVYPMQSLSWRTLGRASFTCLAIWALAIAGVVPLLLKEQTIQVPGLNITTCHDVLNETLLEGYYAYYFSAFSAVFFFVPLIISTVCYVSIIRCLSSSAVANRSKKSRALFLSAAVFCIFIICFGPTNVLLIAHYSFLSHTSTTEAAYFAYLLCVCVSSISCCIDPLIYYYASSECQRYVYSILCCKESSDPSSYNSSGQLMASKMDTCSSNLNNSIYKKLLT
Experiment: PAR-1 FLIPR Assay
Protocol: Media was then removed from the cells, incubated with 33 ul of Calcium-5 dye in assay buffer (Hank's buffer containing 20 mM HEPES, 0.04% Chaps and 2.5 mM Probenecid) for 60 minutes at 37° C. 2 uL of varying concentrations of compound in 40% DMSO in assay buffer (final DMSO concentration is 2.3%) were then added to the cells and incubated at 25° C. for 30 minutes. […] The range of peptide was from 1.5-3 μM. The final volume was 40 uL/well, with 2% DMSO. […] The data were analyzed by taking the peak signal over a portion of the range of the 60 scans and dividing this signal by the minimum signal for that same range.

Cc1nc(/C=C/[C@@H]2[C@@H]3[C@@H](C)OC(=O)[C@]3(C(N)=O)CC(F)(F)[C@H]2C)ccc1-c1ccccc1C#N [US9701669, 4] was tested, and the IC50 was 6.92 nM.
